3 molecules from patent EP0701444B1, “METHODS AND COMPOSITIONS FOR INDUCING SLEEP” (Purdue Pharma Ltd., priority 1993, dated 1994) can be followed below.

SMILES strings stand for the structures. Entries after “also recorded” stand apart in the source; their conditions may differ. Like-named read-outs stand apart in the source and are kept apart here.

Data set [1] deals with steroid site on the GABAA receptor-chloride channel complex. As to the kind of experiment: [35S]TBPS binding assay. The note with it: inhibition of [35S]TBPS (2 nM) binding, rat cerebral cortex P2 membranes, 5 µM GABA, 90 minute incubation at 22°C. More on the design: species or system Male Sprague-Dawley rats. As to the method:
TBPS binding assays were conducted according to the following procedures, which are described in Gee, K.W.; Lawrence, L.J.; and Yamamura, H. I., "Modulation of the Chloride Ionophore by Benzodiazepine Receptor Ligands Influence of Gamma-Aminobutyric Acid and Ligand Efficacy," Molecular Pharmacology, 30:218, 1986. Male Sprague-Dawley rats (200-250g) were anesthetized with carbon dioxide and decapitated. The rats' brains were removed and the cerebral cortices were dissected and homogenized in 10 volumes of 0.32 M sucrose. Tissue was centrifuged at 1000 x g for 10 minutes and the resultant supernatant was centrifuged at 9,000 g for 20 minutes. The resultant pellet was resuspended in 10 volumes of 200 mM NaCl/50 mM Na-K phosphate pH 7.4 buffer (binding buffer) and then centrifuged at 9,000 x g for 10 minutes. This washing procedure was repeated twice and the final P2 pellet was resuspended in the binding buffer. For the binding assay, [^35S] TBPS (2 nM) was co-incubated in binding buffer with P2 membranes and 5 µM GABA and either 1) no additions to measure total binding; 2) 2 µM unlabeled TPBS to measure nonspecific binding; 3) the neurosteroid ranging in concentration from 1 Nm to 10µM. Following a 90 minute incubation at 22°C, the suspension was filtered and the bound radioactivity was determined by liquid scintillation counting. […] A lower IC50 indicates higher affinity for the steroid site on the GABAA receptor-chloride channel complex. Table 1 gives the IC50 values of representative steroids used in the present invention.

Data set [2] has as its system rats. In words: Rat sleep-wake bioassay (EEG, EMG, locomotor activity, body temperature). In kind it is in vivo, Wistar rats. The note with it: for reduction in locomotor activity (LMA) over time: compared to Triazolam and Zolpidem. As to the method:
Rat preparation, monitoring, and analysis of the data was conducted as described below. […] Body temperature and locomotor activity were monitored via a miniature transmitter (Minimitter) surgically placed in the abdomen. The cranial implant consisted of stainless steel screws (2 frontal [+3.9 AP form bregma, ±2.0 ML] and two occipital [-6.4 AP, ±5.5 ML]) for EEG recording. Two Teflon-coated steel wires were positioned under the nuchal trapezoid muscles for EMG recording. All leads were soldered to a miniature connector prior to surgery, and chemically sterilized in Glutarex (3M Co.). The implant assembly was affixed to the skull with dental acrylic. A minimum of three weeks was allowed for recovery.
Each rat was permanently housed in its own individual recording cage located within separate, ventilated compartments of custom-designed stainless steel cabinets. Each Nalgene microisolator cage, which is an individual recording cage, was enhanced with a filter-top riser and swivel-commutator. Food and water were available ad libitum. […] Animals were undisturbed for three days both before and after treatments. In practice, animals were undisturbed during the weekend. Treatments were administered on Monday evening or Tuesday morning, and the animals were again left undisturbed until Friday, when cages were cleaned and the data copied off the computers.
The computers monitored the EEG, EMG, body temperature and non-specific locomotor activity (LMA) via telemetry, and drinking activity from 48 rats simultaneously. The computer classified the arousal state every 10 seconds using pattern-matching algorithms which included behavior-dependent contextual rules. Drinking and LMA were recorded every 10 seconds, while body temperature was recorded every minute.
Therefore, time of treatment is important. By administering the drug at CT-18, which is the peak of the rat's activity dominated period, the natural tendency for the rats to sleep at lights on ([…] clock time or Circadian Time, CT-0) cannot mask the hypnotic activity of the drug. By administering the drug at CT-5 when the propensity for REM sleep is greatest, the drug's effect on REM sleep can be measured more accurately. The activity dominated period begins when the lights are turned off at CT-12 or 15:00 clock time on the Figures.
The drugs and controls were injected intraperitoneally or administered orally in a volume of 1 ml/kg or […], respectively, under dim red illumination for the CT-18 studies or under regular light for the CT-5 studies.
A matched control group, N=20, was selected from a pool of 60 available control candidates. These matched control groups were constructed as follows.

A short description of data set [3]: Solubility in water. In kind it is physicochemical. The note with it: read-out: soluble in water.

For the molecule `CC(=O)[C@H]1CC[C@H]2[C@@H]3CC[C@@H]4C[C@H](O)CC[C@]4(C)[C@H]3CC[C@]12C` [3α-hydroxy-5β-pregnan-20-one], in data set [1], the IC50 (in general, the midpoint of a concentration-inhibition curve) turned out to be 25 nM. Moreover, in data set [2], the body temperature entry was “tends not to affect body temperature”. Also, in data set [2], the “duration of uninterrupted NREM sleep (sleep bout length)” value is recorded as “strong increase”. In addition, the “rebound insomnia / rebound wakefulness / rebound effects” value in data set [2] was “not producing rebound wakefulness”. Also, the “reduction in locomotor activity (LMA) over time” value in data set [2] (10 mg/kg) was “no reduction”; in data set [2] (30 mg/kg), “moderately smaller reduction”. In addition, the “rebound reduction of NREM sleep” value in data set [2] (CT-5 or CT-18, any dose) is “no rebound reduction of NREM sleep”. The NREM sleep result in data set [2] (administered at CT-5 or CT-18, listed as Pregnanolone) was “potent at both CT-5 and CT-18; also recorded: potent NREM-promoting effect”; in data set [2] (administered at CT-5 or CT-18, listed as pregnanolone), “effective in promoting NREM sleep”. Besides, the REM sleep result in data set [2] (listed as Pregnanolone) is on record as “slight REM-interference”; in data set [2] (listed as pregnanolone), “lack an inhibitory effect on REM sleep”.

The molecule `C#C[C@@]1(O)CC[C@@]2(C)[C@H](CC[C@@H]3[C@@H]2CC[C@]2(C)[C@@H](C(C)=O)CC[C@@H]32)C1` [3β-ethynyl-3α-hydroxy-5β-pregnan-20-one] showed a half-maximal inhibitory concentration (IC50) in data set [1] of 39 nM. In addition, in data set [2], the REM sleep result is “lack an inhibitory effect on REM sleep”, the body temperature result is “minimal effect on body temperature” and the “duration of uninterrupted NREM sleep (sleep bout length)” value is reported as “strong increase”. Further, the “reduction in LMA over time” value in data set [2] (18 mg/kg at CT-18) was “moderately smaller reduction”. Further, the “rebound reduction of NREM sleep” value in data set [2] (administered at CT-18) was “no rebound reduction of NREM sleep”.

Turning to `C#C[C@@]1(O)CC[C@@]2(C)[C@H](CC[C@@H]3[C@@H]2CC[C@]2(C)[C@@H](C(=O)COC(=O)CCC(=O)O)CC[C@@H]32)C1` [Sodium 3α,21-dihydroxy-3β-ethynyl-5β-pregnan-20-one 21-hemisuccinate], the solubility in data set [3] was over 20 mg/mL.
